Reference: ChEMBL document CHEMBL5608259 (J Med Chem, 2024)
pIC50: −log10 of the molar value. The source made the active and inactive calls. The calls are words filed in the database; no cut-off is given here.

Legend:
[1] = target: T1, Protein arginine N-methyltransferase 8 (Homo sapiens, UniProt Q9NR22); experiment: Inhibition of human PRMT8 using Histone H4 as substrate and SAM as cofactor at 10 uM by radiometric HotSpot assay relative to control
Target sequence in this assay (Q9NR22 2-394 limits assumed): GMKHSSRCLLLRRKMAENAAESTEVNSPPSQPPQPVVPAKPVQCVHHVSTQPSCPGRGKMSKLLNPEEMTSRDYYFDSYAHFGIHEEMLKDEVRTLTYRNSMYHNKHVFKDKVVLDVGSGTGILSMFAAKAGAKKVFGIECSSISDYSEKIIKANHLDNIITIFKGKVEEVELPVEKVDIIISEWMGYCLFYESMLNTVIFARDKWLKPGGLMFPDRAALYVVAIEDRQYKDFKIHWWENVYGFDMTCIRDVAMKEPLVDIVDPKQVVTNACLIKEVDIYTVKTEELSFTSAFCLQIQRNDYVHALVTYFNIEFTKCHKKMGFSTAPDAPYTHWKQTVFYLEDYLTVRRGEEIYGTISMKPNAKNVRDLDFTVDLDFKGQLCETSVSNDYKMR

[2] = target: T2, Protein arginine N-methyltransferase 6 (Homo sapiens, UniProt Q96LA8); experiment: Inhibition of human PRMT6 using GST-GAR as substrate and SAM as cofactor at 10 uM by radiometric HotSpot assay relative to control
Target sequence in this assay (Q96LA8 whole entry, looked up): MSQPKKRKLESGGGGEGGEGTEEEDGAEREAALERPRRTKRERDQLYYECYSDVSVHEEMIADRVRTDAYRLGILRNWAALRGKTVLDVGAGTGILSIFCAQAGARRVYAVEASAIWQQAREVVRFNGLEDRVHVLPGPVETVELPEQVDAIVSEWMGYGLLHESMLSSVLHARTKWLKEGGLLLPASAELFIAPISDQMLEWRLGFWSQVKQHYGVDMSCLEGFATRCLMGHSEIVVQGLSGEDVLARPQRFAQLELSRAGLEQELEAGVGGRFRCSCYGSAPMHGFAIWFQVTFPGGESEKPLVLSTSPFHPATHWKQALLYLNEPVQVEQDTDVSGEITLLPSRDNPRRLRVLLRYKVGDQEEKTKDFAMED

[3] = Permeability of the compound by PAMPA method; type: ADME; settings: read-out: permeability
[4] = target: PRMT5/MEP50 complex (Homo sapiens) (UniProt O14744+Q9BQA1); experiment: Inhibition of human PRMT5/MEP50 using Histone H2 as substrate and SAM as cofactor at 10 uM by radiometric HotSpot assay relative to control; type: protein-complex assay
[5] = target: T3, Protein arginine N-methyltransferase 7 (Homo sapiens, UniProt Q9NVM4); experiment: Inhibition of PRMT7 (unknown origin)
T3 sequence (Q9NVM4 whole entry): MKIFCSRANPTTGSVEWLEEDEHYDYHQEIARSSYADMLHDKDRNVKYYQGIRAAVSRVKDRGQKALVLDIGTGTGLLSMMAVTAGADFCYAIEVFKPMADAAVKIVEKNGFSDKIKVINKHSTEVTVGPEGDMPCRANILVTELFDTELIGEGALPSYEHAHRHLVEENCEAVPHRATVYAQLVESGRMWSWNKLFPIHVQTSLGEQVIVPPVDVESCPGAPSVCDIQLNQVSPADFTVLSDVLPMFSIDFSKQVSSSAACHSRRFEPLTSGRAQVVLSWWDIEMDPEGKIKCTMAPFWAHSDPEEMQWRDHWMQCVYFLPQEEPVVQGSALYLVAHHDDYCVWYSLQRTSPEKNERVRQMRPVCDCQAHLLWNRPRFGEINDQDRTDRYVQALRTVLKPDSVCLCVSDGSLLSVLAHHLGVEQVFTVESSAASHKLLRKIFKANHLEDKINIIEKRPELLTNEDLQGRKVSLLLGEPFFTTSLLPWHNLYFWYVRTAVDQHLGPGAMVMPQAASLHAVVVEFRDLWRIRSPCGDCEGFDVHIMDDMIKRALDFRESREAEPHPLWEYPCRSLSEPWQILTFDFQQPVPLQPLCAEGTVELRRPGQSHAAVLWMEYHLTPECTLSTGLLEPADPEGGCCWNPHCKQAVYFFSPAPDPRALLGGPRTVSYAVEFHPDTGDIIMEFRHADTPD

[6] = target: Protein arginine N-methyltransferase 1 (Homo sapiens, UniProt Q99873); experiment: Inhibition of PRMT1 (unknown origin)
Chain of Protein arginine N-methyltransferase 1 (Q99873 whole entry): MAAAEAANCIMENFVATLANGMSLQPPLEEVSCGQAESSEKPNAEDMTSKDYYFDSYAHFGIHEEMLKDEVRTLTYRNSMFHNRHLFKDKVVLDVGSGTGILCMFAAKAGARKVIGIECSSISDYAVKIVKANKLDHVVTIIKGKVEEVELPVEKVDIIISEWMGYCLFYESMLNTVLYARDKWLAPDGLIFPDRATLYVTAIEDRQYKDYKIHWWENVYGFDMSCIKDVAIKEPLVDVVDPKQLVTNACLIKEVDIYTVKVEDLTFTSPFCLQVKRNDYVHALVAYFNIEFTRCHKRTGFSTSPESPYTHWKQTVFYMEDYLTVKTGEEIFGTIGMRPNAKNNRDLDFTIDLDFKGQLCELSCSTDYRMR

[7] = target: T2, Protein arginine N-methyltransferase 6; experiment: Inhibition of PRMT6 (unknown origin)
Target sequence in this assay (Q96LA8 whole entry): as the sequence (Q96LA8 whole entry, looked up) above

[8] = target: T4, Histone-arginine methyltransferase CARM1 (Homo sapiens, UniProt Q86X55); experiment: Inhibition of PRMT4 (unknown origin)
T4 sequence (Q86X55 whole entry): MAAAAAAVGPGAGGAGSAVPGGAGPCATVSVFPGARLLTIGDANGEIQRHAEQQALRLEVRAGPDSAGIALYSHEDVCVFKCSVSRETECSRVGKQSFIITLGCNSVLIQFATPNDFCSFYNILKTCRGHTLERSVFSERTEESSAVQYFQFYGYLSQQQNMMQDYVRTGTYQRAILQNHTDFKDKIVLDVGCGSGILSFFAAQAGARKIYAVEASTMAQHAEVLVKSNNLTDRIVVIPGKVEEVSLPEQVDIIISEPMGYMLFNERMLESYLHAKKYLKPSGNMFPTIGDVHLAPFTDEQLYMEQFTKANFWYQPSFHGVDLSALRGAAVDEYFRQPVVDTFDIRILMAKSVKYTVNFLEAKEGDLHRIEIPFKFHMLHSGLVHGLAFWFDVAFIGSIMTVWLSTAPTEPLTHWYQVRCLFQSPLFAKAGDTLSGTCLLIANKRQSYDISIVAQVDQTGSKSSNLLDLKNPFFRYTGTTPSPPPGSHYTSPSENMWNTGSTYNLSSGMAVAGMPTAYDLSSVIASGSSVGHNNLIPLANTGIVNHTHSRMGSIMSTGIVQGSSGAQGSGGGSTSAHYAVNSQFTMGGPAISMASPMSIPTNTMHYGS

[9] = target: T1, Protein arginine N-methyltransferase 8; experiment: Inhibition of PRMT8 (unknown origin)
Target sequence in this assay (Q9NR22 whole entry): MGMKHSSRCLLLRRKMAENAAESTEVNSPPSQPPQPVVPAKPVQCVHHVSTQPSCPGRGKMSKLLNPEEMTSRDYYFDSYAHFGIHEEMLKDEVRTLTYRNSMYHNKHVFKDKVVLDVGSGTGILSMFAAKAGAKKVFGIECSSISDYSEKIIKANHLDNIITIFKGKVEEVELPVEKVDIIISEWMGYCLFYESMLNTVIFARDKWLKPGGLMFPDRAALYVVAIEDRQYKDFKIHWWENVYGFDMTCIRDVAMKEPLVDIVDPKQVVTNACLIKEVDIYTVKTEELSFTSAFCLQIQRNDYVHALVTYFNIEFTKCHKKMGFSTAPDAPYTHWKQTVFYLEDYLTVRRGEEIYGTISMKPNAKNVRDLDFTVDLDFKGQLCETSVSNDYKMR

[10] = target: Protein arginine N-methyltransferase 3 (Homo sapiens, UniProt O60678); experiment: Inhibition of PRMT3 (unknown origin)
Chain of Protein arginine N-methyltransferase 3 (O60678 whole entry): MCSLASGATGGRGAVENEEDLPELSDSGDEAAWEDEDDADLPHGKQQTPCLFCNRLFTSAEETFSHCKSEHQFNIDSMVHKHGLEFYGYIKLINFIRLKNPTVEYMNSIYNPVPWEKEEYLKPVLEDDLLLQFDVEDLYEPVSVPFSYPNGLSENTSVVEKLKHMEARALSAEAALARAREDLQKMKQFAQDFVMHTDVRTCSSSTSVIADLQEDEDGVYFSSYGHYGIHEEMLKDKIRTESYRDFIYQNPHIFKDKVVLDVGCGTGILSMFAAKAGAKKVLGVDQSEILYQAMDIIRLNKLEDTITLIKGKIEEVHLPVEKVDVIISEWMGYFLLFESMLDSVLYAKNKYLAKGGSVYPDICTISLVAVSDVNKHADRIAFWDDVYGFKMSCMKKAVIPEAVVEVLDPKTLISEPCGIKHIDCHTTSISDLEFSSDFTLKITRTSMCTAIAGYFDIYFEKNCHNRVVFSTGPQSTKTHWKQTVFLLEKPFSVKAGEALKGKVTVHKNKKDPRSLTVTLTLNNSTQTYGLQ

[11] = target: T5, Histone-arginine methyltransferase CARM1 (Homo sapiens) (UniProt Q86X55); experiment: Inhibition of PRMT4 in human MDA-MB-231 cells assessed as inhibition of PABP1 methylation at 10 uM by Western blot analysis; type: cell-based
T5 sequence (whole entry): T4 sequence (Q86X55 whole entry)

[12] = target: T5, Histone-arginine methyltransferase CARM1 (Homo sapiens); experiment: Inhibition of PRMT4 in human MDA-MB-231 cells assessed as decrease in PABP1 methylation level incubated for 24 to 48 hrs by Western blot analysis; type: cell-based; settings: dose 0.01-20 µM, time 24-48 hrs
MDA-MB-231 = experiment: Inhibition of colony formation in human MDA-MB-231 cells at 10 uM incubated for 2 weeks by crystal violet staining based analysis relative to control; type: functional; settings: MDA-MB-231, 336 h
[13] = target: T5, Histone-arginine methyltransferase CARM1 (Homo sapiens); experiment: Inhibition of PRMT4 in human MDA-MB-231 cells assessed as inhibition of BAF155 methylation at 10 uM by Western blot analysis; type: cell-based; settings: time 1-48 hrs
[14] = target: T5, Histone-arginine methyltransferase CARM1 (Homo sapiens); experiment: Potency index, ratio of IC50 for EZM2302 to test compound IC50 for inhibition of PRMT4 in human MDA-MB-231 cells assessed as decrease in BAF155 methylation level incubated for 48 hrs by Western blot analysis; type: cell-based
4T1.2 [15] = experiment: In vivo inhibition of PRMT4 in mouse 4T1.2 cells xenografted in Balb/c mouse assessed as decrease in BAF155 methylation level at 50 mg/kg, ip by immunoblot analysis; type: functional, organism-based
[16] = target: T5, Histone-arginine methyltransferase CARM1 (Homo sapiens); experiment: Potency index, ratio of IC50 for TP-064 to test compound IC50 for inhibition of PRMT4 in human MDA-MB-231 cells assessed as decrease in BAF155 methylation level incubated for 48 hrs by Western blot analysis; type: cell-based
[17] = target: T4, Histone-arginine methyltransferase CARM1; experiment: Inhibition of PRMT4 in human MDA-MB-231 cells assessed as decrease in BAF155 methylation level incubated for 24 hrs by Western blot analysis; type: cell-based
[18] = Drug recovery in mouse plasma at 5 uM measured after 5 hrs by LC-MS/MS analysis; type: ADME, cell-free; settings: read-out: Drug recovery
[19] = target: T4, Histone-arginine methyltransferase CARM1; experiment: Inhibition of PRMT4 in human MDA-MB-231 cells assessed as decrease in PABP1 methylation level incubated for 24 hrs by Western blot analysis; type: cell-based
4T1.2 [20] = experiment: Antitumor activity against mouse 4T1.2 cells xenografted in Balb/c mouse assessed as inhibition of tumor growth at 50 mg/kg, ip measured after 4 weeks by caliper method; type: functional, organism-based
[21] = target: T4, Histone-arginine methyltransferase CARM1; experiment: Inhibition of PRMT4 in human MDA-MB-231 cells assessed as decrease in PABP1 methylation level incubated for 48 hrs by Western blot analysis; type: cell-based
[22] = target: T5, Histone-arginine methyltransferase CARM1 (Homo sapiens); experiment: Inhibition of PRMT4 in human MDA-MB-231 cells assessed as decrease in BAF155 methylation level incubated for 24 to 48 hrs by Western blot analysis; type: cell-based; settings: dose 0.01-20 µM, time 24-48 hrs
[23] = Toxicity in Balb/c mouse assessed as effect on body weight at 50 mg/kg, ip measured after 4 weeks; type: organism-based; settings: in vivo, 672 h
[24] = target: T4, Histone-arginine methyltransferase CARM1; experiment: Inhibition of PRMT4 in human MDA-MB-231 cells assessed as decrease in BAF155 methylation level incubated for 48 hrs by Western blot analysis; type: cell-based
[25] = Prodrug release in human MDA-MB-231 cells assessed as (2R,3R,4S,5S)-2-(6-amino-9H-purin-9-yl)-5-(((2-((3-bromobenzyl)amino)ethyl)thio)methyl)tetrahydrofuran-3,4-diol formation at 4.5 uM measured after 30 mins by LC-MS analysis; type: ADME, cell-based; settings: mda-mb-231, 0.5 h
[26] = Plasma protein binding in mouse at 5 uM measured after 5 hrs by LC-MS/MS analysis; type: ADME, cell-free; settings: read-out: PPB (converted)

Compound: Nc1ncnc2c1ncn2[C@@H]1O[C@H](CSCCNCc2cccc(Br)c2)[C@@H](O)[C@H]1O
- inhibition [1]: > 50%
- inhibition [2]: 50%
- Papp [3]: 0.3 ×10⁻⁶ cm/s
- inhibition [4]: 75%

Compound: Nc1nc2cc(CC[C@H]3C[C@@H](n4ccc5c(N)ncnc54)[C@H](O)[C@@H]3O)ccc2cc1Br [ONAMETOSTAT]
- pIC50 [5]: < 5.00
- pIC50 [6]: < 5.00
- pIC50 [7]: < 5.00
- pIC50 [8]: < 5.00
- pIC50 [9]: < 5.00
- pIC50 [10]: < 5.00

Compound: CC1=C(C)C(=O)C(C(C)(C)CC(=O)N(CCSC[C@H]2O[C@@H](n3cnc4c(N)ncnc43)[C@H](O)[C@@H]2O)Cc2cccc(Br)c2)=C(C)C1=O
- inhibition [11]: Dose-Dependent Effect
- inhibition [12]: Dose-Dependent Effect
- inhibition at 10 µM (MDA-MB-231): 100%
- inhibition [13]: Dose-Dependent Effect
- Ratio IC50 [14]: 2
- inhibition (4T1.2 [15]): Active
- Ratio IC50 [16]: 2
- pIC50 [17]: 6.46
- remaining at 5 h, 5 µM [18]: 90.8%
- pIC50 [19]: 7.51
- inhibition (4T1.2 [20]): Active
- pIC50 [21]: 7.64
- inhibition [22]: Dose-Dependent Effect
- Activity [23]: Non-Toxic
- pIC50 [24]: 7.37
- Drug metabolism [25]: Metabolite_Detected
- fraction unbound at 5 h, 5 µM [26]: 0.004
